The inhibition is the share of the control response that was lost under treatment.

Series [1] concerns the target T1, angiotensin-converting enzyme (ACE) (Rattus norvegicus, UniProt P47820).
T1 construct: Normotensive rats were anesthetized with urethane; from tissue; host or cells: endogenous enzyme of the whole living animal (normotensive rats, in vivo)
T1 sequence (P47820 36-1313): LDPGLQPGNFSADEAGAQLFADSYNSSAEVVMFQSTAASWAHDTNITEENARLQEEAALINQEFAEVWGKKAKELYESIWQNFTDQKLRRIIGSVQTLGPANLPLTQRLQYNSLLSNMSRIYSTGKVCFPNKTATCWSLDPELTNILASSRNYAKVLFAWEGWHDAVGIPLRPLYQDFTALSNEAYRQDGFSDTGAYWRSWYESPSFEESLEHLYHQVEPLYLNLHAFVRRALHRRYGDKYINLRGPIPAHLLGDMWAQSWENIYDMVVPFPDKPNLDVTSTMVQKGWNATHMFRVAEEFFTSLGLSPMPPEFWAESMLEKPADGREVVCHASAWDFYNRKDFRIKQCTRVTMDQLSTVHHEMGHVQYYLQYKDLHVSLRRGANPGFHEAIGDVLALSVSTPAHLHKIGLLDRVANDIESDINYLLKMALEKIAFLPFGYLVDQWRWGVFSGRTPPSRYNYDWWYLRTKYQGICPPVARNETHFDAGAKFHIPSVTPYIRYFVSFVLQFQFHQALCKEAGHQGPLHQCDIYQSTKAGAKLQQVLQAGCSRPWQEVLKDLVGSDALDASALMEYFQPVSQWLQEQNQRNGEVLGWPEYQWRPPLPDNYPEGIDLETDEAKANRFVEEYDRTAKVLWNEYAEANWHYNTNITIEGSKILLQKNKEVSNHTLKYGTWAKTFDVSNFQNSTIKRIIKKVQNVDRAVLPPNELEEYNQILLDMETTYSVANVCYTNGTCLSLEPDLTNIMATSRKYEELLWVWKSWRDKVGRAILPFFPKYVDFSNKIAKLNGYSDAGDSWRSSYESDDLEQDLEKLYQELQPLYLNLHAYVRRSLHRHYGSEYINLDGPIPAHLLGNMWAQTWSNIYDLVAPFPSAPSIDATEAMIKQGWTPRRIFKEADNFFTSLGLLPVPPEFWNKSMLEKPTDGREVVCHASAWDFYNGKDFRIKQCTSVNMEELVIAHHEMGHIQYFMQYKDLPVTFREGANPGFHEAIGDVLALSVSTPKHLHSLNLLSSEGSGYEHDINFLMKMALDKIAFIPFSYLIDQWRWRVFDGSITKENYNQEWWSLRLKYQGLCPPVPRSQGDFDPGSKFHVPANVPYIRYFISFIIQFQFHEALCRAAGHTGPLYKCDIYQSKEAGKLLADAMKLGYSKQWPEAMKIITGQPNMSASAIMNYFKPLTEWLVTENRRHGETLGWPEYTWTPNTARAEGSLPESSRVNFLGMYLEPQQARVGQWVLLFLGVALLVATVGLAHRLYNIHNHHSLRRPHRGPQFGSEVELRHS
Nature of the series: ACE-inhibitory activity in vivo (pressor response to angiotensin I). Conditions: 1.0 mg/kg orally, anesthetized normotensive rats; for Duration of action: ACE inhibition; for inhibition at 1 mg/kg: rat, read-out: ACE-inhibitory activity (%), percentage inhibition of ACE-activity in vivo. The protocol: ACE-inhibitory activity in vivo:
Normotensive rats were anesthetized with urethane (1.5 g/kg, s.c.), and agiotensin I (75~300 ng/kg) was injected into the femoral vein of the rates. The pressor response to angiotensin I was measured with a pressure transducer connected to the carotid artery. Then, a test compound was administered orally thereto at a dose of 1.0 mg/kg, and angiotensin I (300 ng/kg) was further injected intravenously at intervals. The ACE-inhibitory activity of the test compound was estimated from the pressor responses to angiotensin I which were obtained before and after oral administration of the test compound.

Series [2] concerns spontaneously hypertensive rats (SHR). In words: Hypotensive activity in SHR. It counts as in vivo. Particulars: 50 mg/kg orally; for Decrease in blood pressure (-ΔmmHg): SHR fasted overnight, systolic blood pressure, tail plethysmography. As to the method: Hypotensive activity in SHR:
A test compound suspended in an aqueous carboxymethylcellulose solution was administered orally to spontaneously hypertensive rats (SHR) fasted overnight. The systolic blood pressure of the rats was measured by the tail plethysmographic technique (The Journal of Laboratory and Clicical Medicine 78 (1971), page 957). The hypotensive activity of the test compound was estimated from the decreased level of blood pressure.

The next series deals with mice. In words: Toxicity after oral administration to mice. It counts as in vivo. Particulars: 3 g/kg orally. As to the method: For example, when (4S)-1-benzyl- 3-[(2S)-3-benzoylthio-2-methylpropionyl]-2-oxo-imidazolidine-4-carboxylic acid was administered orally to mice at a dose of 3 g/kg, no mouse died within 7 days after said administration.

Regarding `C[C@H](CSC(=O)c1ccccc1)C(=O)N1C(=O)N(Cc2ccccc2)C[C@H]1C(=O)O` [C6 H5 CH2 C6 H5, (4S)-1-benzyl-3-[(2S)-3-benzoylthio-2-methylpropionyl]-2-oxo-imidazolidine-4-carboxylic acid], the “Duration of action” value is greater than 120 min in series [1] and greater than 6 h in series [2] (hypotensive activity, SHR, 50 mg/kg). Besides, the inhibition at 1 mg/kg in series [1] (angiotensin I 300 ng/kg i.v.) came to 76%. The “Decrease in blood pressure (-ΔmmHg)” value in series [2] is given as 44 mmHg; in series [2] (listed as (4S)-1-benzyl-3-[(2S)-3-benzoylthio-2-methylpropionyl]-2-oxo-imidazolidine-4-car), “about 44 mmHg”. Further, the “Duration of action (hours)” value in series [2] (hypotensive activity, SHR, listed as (4S)-1-benzyl-3-[(2S)-3-benzoylthio-2-methylpropionyl]-2-oxo-imidazolidine-4-car, 50 mg/kg) was “more than 6 hours”. Also, the “Mortality within 7 days after administration” value in the series on mice is “no mouse died”.

On to `C[C@H](CSC(=O)c1ccccc1)C(=O)N1C(=O)N(C)C[C@H]1C(=O)O` [CH3 C6 H5, (4S)-1-methyl-3-[(2S)-3-benzoylthio-2-methylpropionyl]-2-oxo-imidazolidine-4-carboxylic acid], for which, in series [1] (angiotensin I 300 ng/kg i.v.), the “ACE-inhibitory activity (%), percentage inhibition of ACE-activity in vivo” value is given as “about 90%” and the inhibition at 1 mg/kg stood at 88%. The “Duration of action” value in series [1] is greater than 120 min.

As for `CC(=O)SC[C@@H](C)C(=O)N1C(=O)N(C)C[C@H]1C(=O)O` [CH3 CH3, (4S)-1-methyl-3-[(2S)-3-acetylthio-2-methylpropionyl]-2-oxo-imidazolidine-4-carboxylic acid], the “Duration of action” value in series [1] is greater than 120 min; in series [2] (hypotensive activity, SHR) it was greater than 6 h. In addition, in series [1] (angiotensin I 300 ng/kg i.v.), the inhibition at 1 mg/kg turned out to be 67%. For the same molecule, the “Decrease in blood pressure (-ΔmmHg)” value in series [2] turned out to be 37 mmHg.

Regarding `CCN1C[C@@H](C(=O)O)N(C(=O)[C@H](C)CSC(=O)c2ccccc2)C1=O` [C2 H5 C6 H5, (4S)-1-ethyl-3-[(2S)-3-benzoylthio-2-methylpropionyl]-2-oxo-imidazolidine-4-carboxylic acid], the “Duration of action” value in series [1] is greater than 120 min. Moreover, in series [1] (angiotensin I 300 ng/kg i.v.), the inhibition at 1 mg/kg amounted to 84%.

The values above are taken from US4380644A, “2-Oxoimidazolidine derivatives” (Tanabe Siyaku Co., Ltd., priority 1980, dated 1983).
